The results in this text go back to patent publication US9085555B2, “Complement pathway modulators and uses thereof” (priority 2011, dated 2015).

The experiment addresses Factor D (Homo sapiens (Human), UniProt P00746). The experiment in a line: biochemical. Type of experiment: biochemical. The conditions noted are these: read-out: IC50.

Chain of Factor D (P00746 26-253): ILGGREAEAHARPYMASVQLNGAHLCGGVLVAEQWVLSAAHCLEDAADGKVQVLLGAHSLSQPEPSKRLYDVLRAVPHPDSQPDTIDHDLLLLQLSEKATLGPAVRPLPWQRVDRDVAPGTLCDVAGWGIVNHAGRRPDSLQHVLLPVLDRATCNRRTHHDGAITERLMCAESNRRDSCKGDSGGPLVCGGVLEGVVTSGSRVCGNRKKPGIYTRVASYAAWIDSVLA

As a reminder, the IC50 is the midpoint of a concentration-inhibition curve. Regarding `NC(=O)n1cc(NC(=O)N2[C@@H]3C[C@@H]3C[C@H]2C(=O)NCc2cccc(Cl)c2F)c2cc(CCO)ccc21` [Example 385, 1R,3S,5R)-2-Aza-bicyclo[3.1.0]hexane-2,3-dicarboxylic acid 2-{[1-carbamoyl-5-(2-hydroxy-ethyl)-1H-indol-3-yl]-amide}3-(3-chloro-2-fluoro-benzylamide], the IC50 amounted to 7 nM.
Take `CC(C)(O)COc1ccc2c(c1)c(NC(=O)N1C3CC3C[C@H]1C(=O)NCc1cccc(Cl)c1F)cn2C(N)=O` (stereo partly drawn) [Example 386, 1R,3S,5R)-2-Aza-bicyclo[3.1.0]hexane-2,3-dicarboxylic acid 2-{[1-carbamoyl-5-(2-hydroxy-2-methyl-propoxy)-1H-indol-3-yl]-amide}3-(3-chloro-2-fluoro-benzylamide]: the IC50 is 8 nM.
Consider `CN(C)CCOc1ccc2c(c1)c(NC(=O)N1[C@@H]3C[C@@H]3C[C@H]1C(=O)NCc1cccc(Cl)c1F)cn2C(N)=O` [Example 387, 1R,3S,5R)-2-Aza-bicyclo[3.1.0]hexane-2,3-dicarboxylic acid 2-{[1-carbamoyl-5-(2-dimethylamino-ethoxy)-1H-indol-3-yl]-amide}3-(3-chloro-2-fluoro-benzylamide], for which the IC50 was 57 nM.
Turning to `NC(=O)n1cc(NC(=O)N2[C@@H]3C[C@@H]3C[C@H]2C(=O)NCc2cccc(Cl)c2F)c2cc(OCCN3CCCC3)ccc21` [Example 388, 1R,3S,5R)-2-Aza-bicyclo[3.1.0]hexane-2,3-dicarboxylic acid 2-{[1-carbamoyl-5-(2-pyrrolidin-1-yl-ethoxy)-1H-indol-3-yl]-amide}3-(3-chloro-2-fluoro-benzylamide], the IC50 stood at 28 nM.
As for `NC(=O)n1cc(NC(=O)N2[C@@H]3C[C@@H]3C[C@H]2C(=O)NCc2cccc(Cl)c2F)c2cc(OCCn3ccnc3)ccc21` [Example 389, 1R,3S,5R)-2-Aza-bicyclo[3.1.0]hexane-2,3-dicarboxylic acid 2-{[1-carbamoyl-5-(2-imidazol-1-yl-ethoxy)-1H-indol-3-yl]-amide}3-(3-chloro-2-fluoro-benzylamide], the IC50 was 30 nM.
Under `CC(C)(C)OC(=O)COc1ccc2c(c1)c(NC(=O)N1[C@@H]3C[C@@H]3C[C@H]1C(=O)NCc1ccccc1F)cn2C(N)=O` [Example 390, (1-Carbamoyl-3-{[(1R,3S,5R)-3-(2-fluoro-benzylcarbamoyl)-2-aza-bicyclo[3.1.0]hexane-2-carbonyl]-amino}-1H-indol-5-yloxy)-acetic acid tert-butyl ester] stands 38 nM; under `NC(=O)n1cc(NC(=O)N2[C@@H]3C[C@@H]3C[C@H]2C(=O)NCc2ccccc2F)c2cc(OCC(=O)O)ccc21` [Example 391, (1-Carbamoyl-3-{[(1R,3S,5R)-3-(2-fluoro-benzylcarbamoyl)-2-aza-bicyclo[3.1.0]hexane-2-carbonyl]-amino}-1H-indol-5-yloxy)-acetic acid], 30 nM; under `NC(=O)n1cc(NC(=O)N2C3CC3C[C@H]2C(=O)NCc2cccc(Cl)c2F)c2ccc(O)cc21` (stereo partly drawn) [Example 392, 1R,3S,5R)-2-Aza-bicyclo[3.1.0]hexane-2,3-dicarboxylic acid 2-[(1-carbamoyl-6-hydroxy-1H-indol-3-yl)-amide]3-(3-chloro-2-fluoro-benzylamide], 7 nM.
For `NC(=O)n1cc(NC(=O)N2C[C@H](F)C[C@H]2C(=O)NCc2cccc(Cl)c2F)c2ccc(O)cc21` [Example 393, 2S,4R)-4-Fluoro-pyrrolidine-1,2-dicarboxylic acid 1-[(1-carbamoyl-6-hydroxy-1H-indol-3-yl)-amide]2-(3-chloro-2-fluoro-benzylamide], the IC50 was found to be 7 nM.
As to `COC(=O)COc1ccc2c(NC(=O)N3[C@@H]4C[C@@H]4C[C@H]3C(=O)NCc3cccc(Cl)c3F)cn(C(N)=O)c2c1` [Example 394, (1-Carbamoyl-3-{[(1R,3S,5R)-3-(3-chloro-2-fluoro-benzylcarbamoyl)-2-aza-bicyclo[3.1.0]hexane-2-carbonyl]-amino}-1H-indol-6-yloxy)-acetic acid methyl ester], the IC50 is 70 nM.
Regarding `NC(=O)n1cc(NC(=O)N2C3CC3C[C@H]2C(=O)NCc2cccc(Cl)c2F)c2ccc(OCCO)cc21` (stereo partly drawn) [Example 395, 1R,3S,5R)-2-Aza-bicyclo[3.1.0]hexane-2,3-dicarboxylic acid 2-{[1-carbamoyl-6-(2-hydroxy-ethoxy)-1H-indol-3-yl]-amide}3-(3-chloro-2-fluoro-benzylamide], the IC50 was 25 nM.
As for `NC(=O)n1cc(NC(=O)N2C[C@@H](N)C[C@H]2C(=O)Nc2cccc(OC(F)(F)F)c2)c2ccc(OCc3ccccc3)cc21` [Example 398, (2S,4S)-4-Amino-pyrrolidine-1,2-dicarboxylic acid 1-[(6-benzyloxy-1-carbamoyl-1H-indol-3-yl)-amide]2-[(3-trifluoromethoxy-phenyl)-amide]], the IC50 came out at 3050 nM.
For `NC(=O)n1cc(NC(=O)N2CCNC[C@H]2C(=O)NCc2cccc(Cl)c2)c2ccccc21` [Example 399, S)-piperazine-1,2-dicarboxylic acid 1-[(1-carbamoyl-1H-indol-3-yl)-amide]2-(3-chloro-benzylamide] the value was 1600 nM; for `NCc1ccc(-c2cccc(NC(=O)[C@@H]3CCCN3C(=O)Nc3cn(C(N)=O)c4ccccc34)c2)cc1` [Example 400, (S)-Pyrrolidine-1,2-dicarboxylic acid 2-[(4′-aminomethyl-biphenyl-3-yl)-amide]1-[(1-carbamoyl-1H-indol-3-yl)-amide]], 3950 nM.
With `NCc1ccc(-c2cccc(NC(=O)[C@@H]3CCCN3C(=O)Nc3cn(C(N)=O)c4ccccc34)c2)c(F)c1` [Example 401, (S)-Pyrrolidine-1,2-dicarboxylic acid 2-[(4′-aminomethyl-2′-fluoro-biphenyl-3-yl)-amide]1-[(1-carbamoyl-1H-indol-3-yl)-amide]], the IC50 turned out to be 1050 nM.
As for `NC[C@H]1CC[C@@H](C(=O)Nc2cccc(OC(F)(F)F)c2)N1C(=O)Nc1cn(C(N)=O)c2ccccc12` [Example 402, (2S,5R)-5-Aminomethyl-pyrrolidine-1,2-dicarboxylic acid 1-[(1-carbamoyl-1H-indol-3-yl)-amide]2-[(3-trifluoromethoxy-phenyl)-amide]], the IC50 worked out at 300 nM.
Take `NC[C@H]1C[C@@H](C(=O)Nc2cccc(OC(F)(F)F)c2)N(C(=O)Nc2cn(C(N)=O)c3ccccc23)C1` [Example 403, (2S,4R)-4-Aminomethyl-pyrrolidine-1,2-dicarboxylic acid 1-[(1-carbamoyl-1H-indol-3-yl)-amide]2-[(3-trifluoromethoxy-phenyl)-amide]]: the IC50 came to 1000 nM.
Under `NC[C@@H]1C[C@@H](C(=O)Nc2cccc(OC(F)(F)F)c2)N(C(=O)Nc2cn(C(N)=O)c3ccccc23)C1` [Example 404, (2S,4S)-4-Aminomethyl-pyrrolidine-1,2-dicarboxylic acid 1-[(1-carbamoyl-1H-indol-3-yl)-amide]2-[(3-trifluoromethoxy-phenyl)-amide]] stands 1000 nM; under `NC[C@H]1C[C@@H](C(=O)NCc2cccc(Cl)c2F)N(C(=O)Nc2cn(C(N)=O)c3ccccc23)C1` [Example 405, 2S,4R)-4-Aminomethyl-pyrrolidine-1,2-dicarboxylic acid 1-[(1-carbamoyl-1H-indol-3-yl)-amide]2-(3-chloro-2-fluoro-benzylamide], 295 nM; under `CN(C)C[C@H]1C[C@@H](C(=O)NCc2cccc(Cl)c2F)N(C(=O)Nc2cn(C(N)=O)c3ccccc23)C1` [Example 406, 2S,4R)-4-Dimethylaminomethyl-pyrrolidine-1,2-dicarboxylic acid 1-[(1-carbamoyl-1H-indol-3-yl)-amide]2-(3-chloro-2-fluoro-benzylamide], 150 nM.
For the molecule `NC[C@@]1(O)C[C@@H](C(=O)NCc2cccc(Cl)c2F)N(C(=O)Nc2cn(C(N)=O)c3ccccc23)C1` [Example 407, 2S,4S)-4-Aminomethyl-4-hydroxy-pyrrolidine-1,2-dicarboxylic acid 1-[(1-carbamoyl-1H-indol-3-yl)-amide]2-(3-chloro-2-fluoro-benzylamide], the IC50 was determined as 1050 nM.
Consider `NC[C@]1(F)C[C@@H](C(=O)NCc2cccc(Cl)c2F)N(C(=O)Nc2cn(C(N)=O)c3ccccc23)C1` [Example 408, 2S,4R)-4-Aminomethyl-4-fluoro-pyrrolidine-1,2-dicarboxylic acid 1-[(1-carbamoyl-1H-indol-3-yl)-amide]2-(3-chloro-2-fluoro-benzylamide], for which the IC50 came out at 1400 nM.
Take `NC[C@@]1(F)C[C@@H](C(=O)NCc2cccc(Cl)c2F)N(C(=O)Nc2cn(C(N)=O)c3ccccc23)C1` [Example 409, 2S,4S)-4-Aminomethyl-4-fluoro-pyrrolidine-1,2-dicarboxylic acid 1-[(1-carbamoyl-1H-indol-3-yl)-amide]2-(3-chloro-2-fluoro-benzylamide]: the IC50 was 25 nM.
Consider `NC(=O)n1cc(NC(=O)N2C[C@@](F)(CNC=O)C[C@H]2C(=O)NCc2cccc(Cl)c2F)c2ccccc21` [Example 410, 2S,4S)-4-Fluoro-4-formylaminomethyl-pyrrolidine-1,2-dicarboxylic acid 1-[(1-carbamoyl-1H-indol-3-yl)-amide]2-(3-chloro-2-fluoro-benzylamide], for which the IC50 came out at 15 nM.
`NC[C@@]1(F)C[C@@H](C(=O)NCc2c(F)ccc(Cl)c2F)N(C(=O)Nc2cn(C(N)=O)c3ccccc23)C1` [Example 411, (2S,4S)-4-aminomethyl-4-fluoro-pyrrolidine-1,2-dicarboxylic acid 1-[(1-carbamoyl-1H-indol-3-yl)-amide]2-(3-chloro-2,6-difluoro-benzylamide)]: the IC50 was determined as 26 nM.
As for `CC(=O)n1cc(NC(=O)N2C[C@@](F)(CN)C[C@H]2C(=O)NCc2cccc(Cl)c2F)c2ccccc21` [Example 412, 2S,4S)-4-Aminomethyl-4-fluoro-pyrrolidine-1,2-dicarboxylic acid 1-[(1-acetyl-1H-indol-3-yl)-amide]2-(3-chloro-2-fluoro-benzylamide], the IC50 was determined as 14 nM.
In the case of `NC[C@@]1(F)C[C@@H](C(=O)N[C@H](CF)c2cccc(Br)c2)N(C(=O)Nc2cn(C(N)=O)c3ccccc23)C1` [Example 413, (2S,4S)-4-Aminomethyl-4-fluoro-pyrrolidine-1,2-dicarboxylic acid 2-{[(S)-1-(3-bromo-phenyl)-2-fluoro-ethyl]-amide}1-[(1-carbamoyl-1H-indol-3-yl)-amide]], the IC50 came out at 101 nM.
